# Reference: US20100226853A1 (priority 2007, published 2010)
# How the values were obtained:
# [1] = Protein binding assay, serum; assay type: in vitro ADME; conditions: fresh human serum
# Experimental: (§1) Protein binding of the radiotracers were determined adding 37 kBq (1 μCi) of each radioligand to samples of 1% bovine serum albumin and 1 mL of fresh human serum. The protein was precipitated by adding 1 mL of ice cold 20% trichloroacetic acid and the suspension centrifuged and washing with 1 mL of 20% ice cold trichloroacetic acid. The protein pellets and supernatants were counted in a gamma counter to determine the protein binding of the radioligands.
# 1% bovine serum albumin = target: T1, 1% bovine serum albumin (Bos taurus, UniProt P02769); experiment: Protein binding assay, BSA; assay type: in vitro ADME
# T1 construct: from tissue; host or cells: bovine serum (from the protein's name)
# Experimental: as §1
# B6D2F1 mice = experiment: Acute toxicity in mice; assay type: in vivo; conditions: for toxicity in mice: 0.1 mg/kg intravenously, single dose, 14 days observation
# Source text: Each group contained three mice. […] There were five males and five females in either control or treatment group. […] Mice were sent for pathology, including complete blood cell count, complete chemistry panel and complete necropsy. Two intact male mice and two intact female mice were also sent and used as references.
# [2] = Octanol/water partition coefficient determination; assay type: physicochemical; conditions: n-octanol/water
# TRKA = target: T2, TRKA (Homo sapiens, UniProt P04629); experiment: QuickScout ELISA kinase panel; assay type: biochemical; conditions: Compound 5 at 10 nM; negative = enhanced phosphorylation
# T2 construct: purchased Carna Biosciences (Kobe, Japan), QuickScout service
# Source text: (§2) An ELISA-based assay was used in which the phosphorylation of an oligopeptide substrate was detected by an HRP-conjugated anti-p-Tyr (PY20) probe.
# IGF1R = target: T3, IGF1R (Homo sapiens, UniProt P08069); experiment: QuickScout ELISA kinase panel; assay type: biochemical; conditions: Compound 5 at 10 nM
# T3 construct: purchased Carna Biosciences (QuickScout service)
# Source text: as §2
# TIE2 = target: T4, TIE2 (Homo sapiens, UniProt Q02763); experiment: QuickScout ELISA kinase panel; assay type: biochemical; conditions: Compound 5 at 10 nM; negative = enhanced phosphorylation
# T4 construct: purchased Carna Biosciences (Kobe, Japan), QuickScout service
# Source text: as §2
# SYK = target: T5, SYK (Homo sapiens, UniProt P43405); experiment: QuickScout ELISA kinase panel; assay type: biochemical; conditions: read-out: % Inhibition of Kinase Activity, SYK
# T5 construct: purchased Carna Biosciences (Kobe, Japan), QuickScout service
# Source text: as §2
# KIT = target: T6, KIT (Homo sapiens, UniProt P10721); experiment: QuickScout ELISA kinase panel; assay type: biochemical
# T6 construct: purchased Carna Biosciences (Kobe, Japan), QuickScout service
# Source text: as §2
# FGFR1 = target: T7, FGFR1 (Homo sapiens, UniProt P11362); experiment: QuickScout ELISA kinase panel; assay type: biochemical; conditions: Compound 5 at 10 nM
# T7 construct: purchased Carna Biosciences (QuickScout service)
# Source text: as §2
# FAK = target: T8, FAK (Homo sapiens, UniProt Q05397); experiment: QuickScout ELISA kinase panel; assay type: biochemical; conditions: read-out: % Inhibition of Kinase Activity, FAK
# T8 construct: purchased Carna Biosciences (QuickScout service)
# Source text: as §2
# EGFR = target: T9, EGFR (Homo sapiens, UniProt P00533); experiment: QuickScout ELISA kinase panel; assay type: biochemical; conditions: Compound 5 at 10 nM
# T9 construct: purchased Carna Biosciences (QuickScout service)
# Source text: as §2
# KDR = target: T10, KDR (Homo sapiens, UniProt P35968); experiment: QuickScout ELISA kinase panel; assay type: biochemical; conditions: Compound 5 at 10 nM; negative = enhanced phosphorylation
# T10 construct: purchased Carna Biosciences (Kobe, Japan), QuickScout service
# Source text: as §2
# ABL = ABL (Homo sapiens, UniProt P00519); experiment: QuickScout ELISA kinase panel; assay type: biochemical; parameters: purchased Carna Biosciences (QuickScout service)
# Source text: as §2
# ACK = target: T11, ACK (Homo sapiens, UniProt Q07912); experiment: QuickScout ELISA kinase panel; assay type: biochemical; conditions: Compound 5 at 10 nM
# T11 construct: purchased Carna Biosciences (QuickScout service)
# Source text: (§3) . […] An ELISA-based assay was used in which the phosphorylation of an oligopeptide substrate was detected by an HRP-conjugated anti-p-Tyr (PY20) probe. […]. The data appears in Table 2 in Example 3.
# MET = target: T12, MET (Homo sapiens, UniProt P08581); experiment: QuickScout ELISA kinase panel; assay type: biochemical; conditions: Compound 5 at 10 nM
# T12 construct: purchased Carna Biosciences (QuickScout service)
# Source text: as §3
# EphA2 = target: T13, EphA2 (Homo sapiens, UniProt P29317); experiment: QuickScout ELISA kinase panel; assay type: biochemical; conditions: Compound 5 at 10 nM
# T13 construct: purchased Carna Biosciences (QuickScout service)
# Source text: as §3
# TEC = target: T14, TEC (Homo sapiens, UniProt P42680); experiment: QuickScout ELISA kinase panel; assay type: biochemical; conditions: Compound 5 at 10 nM
# T14 construct: purchased Carna Biosciences (Kobe, Japan), QuickScout service
# T14 sequence (P42680 1-631): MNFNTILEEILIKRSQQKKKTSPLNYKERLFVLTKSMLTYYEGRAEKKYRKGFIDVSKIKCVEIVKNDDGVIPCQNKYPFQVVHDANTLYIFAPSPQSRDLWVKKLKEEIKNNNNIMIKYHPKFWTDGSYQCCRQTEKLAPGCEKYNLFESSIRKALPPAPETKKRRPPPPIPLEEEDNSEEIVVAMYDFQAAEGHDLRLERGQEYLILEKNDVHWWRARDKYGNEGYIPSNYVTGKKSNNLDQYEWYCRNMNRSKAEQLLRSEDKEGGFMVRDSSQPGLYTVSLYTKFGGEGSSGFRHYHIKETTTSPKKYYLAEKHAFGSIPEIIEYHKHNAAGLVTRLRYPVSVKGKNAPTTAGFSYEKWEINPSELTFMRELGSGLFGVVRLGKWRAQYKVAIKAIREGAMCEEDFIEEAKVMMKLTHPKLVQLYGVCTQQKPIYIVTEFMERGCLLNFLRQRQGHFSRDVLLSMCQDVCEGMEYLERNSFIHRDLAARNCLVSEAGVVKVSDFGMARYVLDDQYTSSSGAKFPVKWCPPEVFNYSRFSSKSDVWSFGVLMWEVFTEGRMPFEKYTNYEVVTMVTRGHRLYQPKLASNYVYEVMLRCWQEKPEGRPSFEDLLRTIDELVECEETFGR
# Source text: as §3
# TYRO3 = target: T15, TYRO3 (Homo sapiens, UniProt Q06418); experiment: QuickScout ELISA kinase panel; assay type: biochemical; conditions: Compound 5 at 10 nM
# T15 construct: purchased Carna Biosciences (QuickScout service)
# Source text: as §3
# CSK = target: T16, CSK (Homo sapiens, UniProt P41240); experiment: QuickScout ELISA kinase panel; assay type: biochemical; conditions: Compound 5 at 10 nM
# T16 construct: purchased Carna Biosciences (QuickScout service)
# Source text: as §3
# EphB4 = target: T17, EphB4 (Homo sapiens, UniProt P54760); experiment: QuickScout ELISA kinase panel; assay type: biochemical; conditions: Compound 5 at 10 nM
# T17 construct: purchased Carna Biosciences (QuickScout service)
# Source text: as §3
# JAK3 = target: T18, JAK3 (Homo sapiens, UniProt P52333); experiment: QuickScout ELISA kinase panel; assay type: biochemical; conditions: Compound 5 at 10 nM
# T18 construct: purchased Carna Biosciences (QuickScout service)
# Source text: as §3
# FLT3 = target: T19, FLT3 (Homo sapiens, UniProt P36888); experiment: QuickScout ELISA kinase panel; assay type: biochemical; conditions: Compound 5 at 10 nM
# T19 construct: purchased Carna Biosciences (Kobe, Japan), QuickScout service
# Source text: as §3
# PDGFR— = target: T20, PDGFR— (Homo sapiens, UniProt P16234); experiment: QuickScout ELISA kinase panel; assay type: biochemical; conditions: Compound 5 at 10 nM
# T20 construct: purchased Carna Biosciences (Kobe, Japan), QuickScout service
# Source text: as §3
# [3] = 0.1 mg/kg i.v., 14 days, average, same in control group
# Chain of ABL (P00519 whole entry): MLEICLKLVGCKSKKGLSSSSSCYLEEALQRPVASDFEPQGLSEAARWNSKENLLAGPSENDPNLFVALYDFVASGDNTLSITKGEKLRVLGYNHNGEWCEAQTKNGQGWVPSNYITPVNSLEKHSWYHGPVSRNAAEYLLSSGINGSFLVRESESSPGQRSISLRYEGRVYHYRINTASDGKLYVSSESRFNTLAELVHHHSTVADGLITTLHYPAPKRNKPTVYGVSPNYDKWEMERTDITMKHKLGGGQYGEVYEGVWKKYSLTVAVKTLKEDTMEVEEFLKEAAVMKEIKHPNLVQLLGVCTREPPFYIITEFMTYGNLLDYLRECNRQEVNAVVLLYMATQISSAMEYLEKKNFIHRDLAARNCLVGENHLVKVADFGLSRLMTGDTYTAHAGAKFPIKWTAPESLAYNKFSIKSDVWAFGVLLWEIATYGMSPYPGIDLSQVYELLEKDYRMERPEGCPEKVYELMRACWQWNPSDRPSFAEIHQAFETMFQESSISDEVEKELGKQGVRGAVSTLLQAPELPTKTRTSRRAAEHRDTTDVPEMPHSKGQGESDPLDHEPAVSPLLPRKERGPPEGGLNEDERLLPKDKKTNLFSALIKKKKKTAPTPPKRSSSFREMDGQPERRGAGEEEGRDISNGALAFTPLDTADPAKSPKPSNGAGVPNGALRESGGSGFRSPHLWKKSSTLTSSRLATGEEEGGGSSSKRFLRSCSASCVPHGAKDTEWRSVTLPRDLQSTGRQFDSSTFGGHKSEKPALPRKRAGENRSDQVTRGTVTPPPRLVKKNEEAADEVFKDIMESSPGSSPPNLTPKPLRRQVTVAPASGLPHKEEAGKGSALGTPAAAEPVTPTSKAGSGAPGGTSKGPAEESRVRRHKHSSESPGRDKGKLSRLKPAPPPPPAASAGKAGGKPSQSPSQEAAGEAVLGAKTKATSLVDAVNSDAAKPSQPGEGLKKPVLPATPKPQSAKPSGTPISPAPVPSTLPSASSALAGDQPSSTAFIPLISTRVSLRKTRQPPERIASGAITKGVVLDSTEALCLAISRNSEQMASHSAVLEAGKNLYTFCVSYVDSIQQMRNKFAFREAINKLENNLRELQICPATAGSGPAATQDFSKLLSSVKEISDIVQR
# T6 sequence (P10721 26-976): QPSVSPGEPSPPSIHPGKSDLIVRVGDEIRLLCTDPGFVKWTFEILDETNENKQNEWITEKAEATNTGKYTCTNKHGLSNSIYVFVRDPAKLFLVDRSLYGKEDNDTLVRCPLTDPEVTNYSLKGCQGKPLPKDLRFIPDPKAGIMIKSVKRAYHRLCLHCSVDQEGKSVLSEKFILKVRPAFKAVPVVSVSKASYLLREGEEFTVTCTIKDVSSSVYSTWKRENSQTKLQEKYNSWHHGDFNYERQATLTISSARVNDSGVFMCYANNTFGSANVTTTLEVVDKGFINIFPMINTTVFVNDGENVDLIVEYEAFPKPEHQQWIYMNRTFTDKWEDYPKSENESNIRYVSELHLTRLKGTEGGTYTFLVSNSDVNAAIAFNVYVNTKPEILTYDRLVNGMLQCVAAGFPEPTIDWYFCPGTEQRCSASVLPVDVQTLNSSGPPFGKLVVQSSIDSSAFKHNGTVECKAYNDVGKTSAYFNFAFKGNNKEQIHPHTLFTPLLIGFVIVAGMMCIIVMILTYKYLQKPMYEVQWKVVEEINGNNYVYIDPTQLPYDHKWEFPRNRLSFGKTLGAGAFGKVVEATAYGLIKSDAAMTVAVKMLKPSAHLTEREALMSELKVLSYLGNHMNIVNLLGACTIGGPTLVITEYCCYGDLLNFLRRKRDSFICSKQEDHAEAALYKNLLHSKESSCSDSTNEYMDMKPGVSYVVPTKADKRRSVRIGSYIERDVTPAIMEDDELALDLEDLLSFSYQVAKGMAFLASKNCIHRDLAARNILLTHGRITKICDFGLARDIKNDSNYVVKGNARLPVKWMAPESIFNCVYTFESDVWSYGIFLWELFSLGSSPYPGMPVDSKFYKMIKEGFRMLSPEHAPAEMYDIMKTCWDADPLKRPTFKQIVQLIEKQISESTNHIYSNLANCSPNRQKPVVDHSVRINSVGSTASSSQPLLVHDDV
# T3 sequence (P08069 31-1367): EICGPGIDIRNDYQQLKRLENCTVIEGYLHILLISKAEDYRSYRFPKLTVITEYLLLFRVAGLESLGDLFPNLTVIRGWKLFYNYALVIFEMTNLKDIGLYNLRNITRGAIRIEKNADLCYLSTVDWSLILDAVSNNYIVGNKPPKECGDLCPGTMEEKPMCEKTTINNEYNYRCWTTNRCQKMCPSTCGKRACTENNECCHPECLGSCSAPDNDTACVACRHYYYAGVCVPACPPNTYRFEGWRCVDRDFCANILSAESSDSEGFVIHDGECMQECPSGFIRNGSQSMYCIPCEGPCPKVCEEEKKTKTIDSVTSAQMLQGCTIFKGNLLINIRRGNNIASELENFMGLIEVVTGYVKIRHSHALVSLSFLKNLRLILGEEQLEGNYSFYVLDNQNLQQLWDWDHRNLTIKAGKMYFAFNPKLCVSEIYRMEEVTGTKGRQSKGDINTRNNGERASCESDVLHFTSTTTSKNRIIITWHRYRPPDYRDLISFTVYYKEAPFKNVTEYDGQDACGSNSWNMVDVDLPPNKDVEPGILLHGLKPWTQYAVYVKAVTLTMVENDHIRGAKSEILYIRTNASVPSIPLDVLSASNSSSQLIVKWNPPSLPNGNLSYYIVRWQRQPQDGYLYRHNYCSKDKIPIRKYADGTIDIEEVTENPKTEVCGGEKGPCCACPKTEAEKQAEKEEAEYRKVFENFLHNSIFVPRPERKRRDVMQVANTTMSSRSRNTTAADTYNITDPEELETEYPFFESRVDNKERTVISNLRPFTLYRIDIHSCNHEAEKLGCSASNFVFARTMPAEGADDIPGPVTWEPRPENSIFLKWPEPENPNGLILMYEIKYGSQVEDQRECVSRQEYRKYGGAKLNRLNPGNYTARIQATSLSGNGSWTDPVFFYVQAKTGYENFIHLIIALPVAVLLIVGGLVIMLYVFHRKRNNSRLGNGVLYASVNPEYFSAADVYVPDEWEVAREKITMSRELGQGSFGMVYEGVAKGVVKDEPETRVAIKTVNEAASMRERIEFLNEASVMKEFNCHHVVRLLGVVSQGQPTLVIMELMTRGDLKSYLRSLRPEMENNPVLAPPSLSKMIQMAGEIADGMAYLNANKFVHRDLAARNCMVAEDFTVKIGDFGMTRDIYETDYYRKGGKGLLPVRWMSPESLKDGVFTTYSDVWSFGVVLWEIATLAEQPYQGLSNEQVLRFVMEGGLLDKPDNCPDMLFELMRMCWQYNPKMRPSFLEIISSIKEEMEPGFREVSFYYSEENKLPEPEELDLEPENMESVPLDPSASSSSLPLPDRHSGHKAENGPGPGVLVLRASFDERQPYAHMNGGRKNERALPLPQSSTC
# T9 sequence (P00533 25-1210): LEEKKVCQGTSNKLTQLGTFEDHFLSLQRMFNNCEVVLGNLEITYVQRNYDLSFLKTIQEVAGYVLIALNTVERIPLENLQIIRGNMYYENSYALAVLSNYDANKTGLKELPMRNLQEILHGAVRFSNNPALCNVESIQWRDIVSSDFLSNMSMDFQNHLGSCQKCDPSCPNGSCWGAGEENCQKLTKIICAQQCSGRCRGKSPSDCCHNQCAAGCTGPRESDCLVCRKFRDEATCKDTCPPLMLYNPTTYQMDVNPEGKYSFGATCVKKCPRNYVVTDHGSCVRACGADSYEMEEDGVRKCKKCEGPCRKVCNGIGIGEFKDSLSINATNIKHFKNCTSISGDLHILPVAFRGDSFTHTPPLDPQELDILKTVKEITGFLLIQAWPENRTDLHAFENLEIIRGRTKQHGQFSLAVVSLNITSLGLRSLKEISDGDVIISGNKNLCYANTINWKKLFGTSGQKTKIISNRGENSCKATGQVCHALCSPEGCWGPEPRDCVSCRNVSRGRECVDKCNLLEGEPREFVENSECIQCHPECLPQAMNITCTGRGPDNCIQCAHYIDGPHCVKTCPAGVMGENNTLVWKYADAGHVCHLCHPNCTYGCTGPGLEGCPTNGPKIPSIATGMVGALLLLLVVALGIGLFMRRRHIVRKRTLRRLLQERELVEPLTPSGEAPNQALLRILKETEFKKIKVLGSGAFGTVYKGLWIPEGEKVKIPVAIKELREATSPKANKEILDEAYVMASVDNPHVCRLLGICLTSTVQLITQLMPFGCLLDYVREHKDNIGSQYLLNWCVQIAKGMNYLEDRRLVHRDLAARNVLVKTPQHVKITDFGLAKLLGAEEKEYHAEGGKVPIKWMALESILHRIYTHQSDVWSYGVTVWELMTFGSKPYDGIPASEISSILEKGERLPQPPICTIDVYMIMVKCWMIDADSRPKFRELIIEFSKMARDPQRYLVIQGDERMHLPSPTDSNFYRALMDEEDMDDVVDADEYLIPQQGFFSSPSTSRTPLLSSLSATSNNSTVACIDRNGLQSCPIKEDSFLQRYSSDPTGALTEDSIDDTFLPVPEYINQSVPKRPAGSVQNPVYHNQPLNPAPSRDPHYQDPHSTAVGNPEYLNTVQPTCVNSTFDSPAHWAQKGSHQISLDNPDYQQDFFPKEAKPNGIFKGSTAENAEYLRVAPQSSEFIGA
# T16 sequence (P41240 whole entry): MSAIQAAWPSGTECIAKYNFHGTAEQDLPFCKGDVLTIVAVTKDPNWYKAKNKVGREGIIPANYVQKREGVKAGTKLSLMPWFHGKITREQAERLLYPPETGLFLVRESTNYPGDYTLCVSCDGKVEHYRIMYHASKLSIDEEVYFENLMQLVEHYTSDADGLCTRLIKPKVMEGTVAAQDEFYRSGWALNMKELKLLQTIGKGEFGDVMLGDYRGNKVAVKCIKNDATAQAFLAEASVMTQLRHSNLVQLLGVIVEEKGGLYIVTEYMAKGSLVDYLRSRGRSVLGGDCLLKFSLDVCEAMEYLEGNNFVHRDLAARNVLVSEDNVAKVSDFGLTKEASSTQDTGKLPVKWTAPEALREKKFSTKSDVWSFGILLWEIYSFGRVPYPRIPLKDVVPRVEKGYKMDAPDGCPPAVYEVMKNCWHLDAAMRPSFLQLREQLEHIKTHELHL
structure (smiles),measurement,setting,value
"Cc1nc(Nc2ncc(C(=O)Nc3c(C)cccc3Cl)s2)cc(N2CCN(CCF)CC2)n1 [Compound 5, N-(2-Chloro-6-methylphenyl)-2-(6-(4-(2-fluoroethyl)piperazin-1-yl)-2-methylpyrimidin-4-ylamino)thiazole-5-carboxamide]",protein bound in serum,[1],98.5±1.0%
same,protein bound in 1% BSA,1% bovine serum albumin,99.0±0.3%
same,"body weight gain, female mice",B6D2F1 mice; [3],0.5 g
same,"body weight gain, male mice",B6D2F1 mice; [3],1.8 g
same,toxicity in mice,B6D2F1 mice,has not shown toxicity
same,toxicity in mice,B6D2F1 mice; listed as fluoro derivative 5,safe and nontoxic
same,logD at 2 h,[2],2.1 ± 0.6
same,inhibition at 0.01 µM,TRKA,-0.9%
same,inhibition at 0.01 µM,IGF1R,5.9%
same,inhibition at 0.01 µM,TIE2,-51.7%
same,inhibition at 0.01 µM,SYK,4.5%
same,IC50,KIT,< 2 nM
same,inhibition at 0.01 µM,KIT; Compound 5 at 10 nM,> 97%
same,"% Inhibition of Kinase Activity, KIT","KIT; Compound 5 at 10 nM, 0.01 µM",98.7%
same,inhibition at 0.01 µM,FGFR1,20.4%
same,inhibition at 0.01 µM,FAK,-18.3%
same,inhibition at 0.01 µM,EGFR,27.2%
same,inhibition at 0.01 µM,KDR,-5.6%
same,IC50,ABL,< 2 nM
same,inhibition at 0.01 µM,ABL; Compound 5 at 10 nM,> 97%
same,"% Inhibition of Kinase Activity, ABL","ABL; Compound 5 at 10 nM, 0.01 µM",99.4%
same,inhibition at 0.01 µM,ACK,83.1%
same,inhibition at 0.01 µM,MET,7.2%
same,inhibition at 0.01 µM,EphA2,98.1%
same,inhibition at 0.01 µM,TEC,98.1%
same,inhibition at 0.01 µM,TYRO3,23.1%
same,inhibition at 0.01 µM,CSK,95.2%
same,inhibition at 0.01 µM,EphB4,97%
same,inhibition at 0.01 µM,JAK3,16%
same,inhibition at 0.01 µM,FLT3,0.3%
same,inhibition at 0.01 µM,PDGFR—,86%
